In brackets after ≈: the same amount, converted by molar mass. Read-outs that look alike come from different tables or passages of the source.
Key:
[1] = system: Pseudomonas aeruginosa ATCC 27853; assay: MIC, broth microdilution (CLSI) versus planktonic bacteria; type: cell-based
[2] = system: Acinetobacter baumannii NCTC 13420; assay: as above; type: cell-based
[3] = system: Haemophilus influenzae ATCC 49247; assay: as above; type: cell-based
E. coli MG1655 = assay: as above; type: cell-based, Escherichia coli; settings: Escherichia coli, MG1655, read-out: MIC, Ec MG1655 WT
E. coli MG1655 D87G = type: cell-based, Escherichia coli; settings: compared to the isogenic parent strain E. coli MG1655; D87G mutation on DNA gyrase subunit GyrA
[4] = system: Enterobacter cloacae NCTC 13406; assay: MIC, broth microdilution (CLSI) versus planktonic bacteria; type: cell-based
[5] = system: Escherichia coli ATCC 25922; assay: as above; type: cell-based
[6] = system: Acinetobacter baumannii ATCC 19606; assay: as above; type: cell-based
E. coli MG1655 S83L = type: cell-based, Escherichia coli; settings: compared to the isogenic parent strain E. coli MG1655; S83L mutation on DNA gyrase subunit GyrA
[7] = system: Streptococcus pneumoniae ATCC 49619; assay: MIC, broth microdilution (CLSI) versus planktonic bacteria; type: cell-based
[8] = system: Staphylococcus aureus ATCC 29213; assay: as above; type: cell-based
[9] = system: human hepatic cell line (HepG2 ATCC HB-8065); assay: Human cell viability assay (CellTiter-Glo); settings: Homo sapiens, HepG2, 24 h, read-out: IC50 (μg/mL) HepG2
[10] = ATCC27853, Pseudomonas aeruginosa ATCC 27853, 16-20 h, mode of three independent experiments, read-out: MIC, Pa ATCC 27853
[11] = NCTC13420, Acinetobacter baumannii NCTC 13420, 16-20 h, mode of three independent experiments, read-out: MIC, Ab NCTC 13420
[12] = ATCC49247, Haemophilus influenzae ATCC 49247, 16-20 h, mode of three independent experiments, read-out: MIC, Hi ATCC 49247
[13] = NCTC13406, Enterobacter cloacae NCTC 13406, 16-20 h, mode of three independent experiments, read-out: MIC, Ecl NCTC 13406
[14] = ATCC25922, Escherichia coli ATCC 25922, 16-20 h, mode of three independent experiments, read-out: MIC, Ec ATCC 25922
[15] = ATCC19606, Acinetobacter baumannii ATCC 19606, 16-20 h, mode of three independent experiments, read-out: MIC, Ab ATCC 19606
[16] = ATCC49619, Streptococcus pneumoniae ATCC 49619, 16-20 h, mode of three independent experiments, read-out: MIC, Sp ATCC 49619
[17] = ATCC29213, Staphylococcus aureus ATCC 29213, 16-20 h, mode of three independent experiments, read-out: MIC, Sa ATCC 29213
[18] = Pseudomonas aeruginosa, ATCC27853, read-out: MIC, Pa ATCC 27853
[19] = Acinetobacter baumannii, NCTC13420, read-out: MIC, Ab NCTC 13420
[20] = Haemophilus influenzae, ATCC49247, read-out: MIC, Hi ATCC 49247
[21] = Enterobacter cloacae, NCTC13406, read-out: MIC, Ecl NCTC 13406
[22] = Escherichia coli, ATCC25922, read-out: MIC, Ec ATCC 25922
[23] = Streptococcus pneumoniae, ATCC49619, read-out: MIC, Sp ATCC 49619
[24] = Staphylococcus aureus, ATCC29213, read-out: MIC, Sa ATCC 29213

| SMILES | MIC [1, 10] [µg/mL] | MIC [2, 11] [µg/mL] | MIC [3, 12] [µg/mL] | MIC (E. coli MG1655) [µg/mL] | Fold increase in MIC, E. coli MG1655 D87G (E. coli MG1655 D87G) [fold] | MIC [4, 13] [µg/mL] | MIC [5, 14] [µg/mL] | MIC [6, 15] [µg/mL] | Fold increase in MIC, E. coli MG1655 S83L (E. coli MG1655 S83L) [fold] | MIC [7, 16] [µg/mL] | MIC [8, 17] [µg/mL] | IC50 [9] [µg/mL] | MIC [1, 18] [µg/mL] | MIC [2, 19] [µg/mL] | MIC [3, 20] [µg/mL] | MIC [4, 21] [µg/mL] | MIC [5, 22] [µg/mL] | MIC ([6]; Acinetobacter baumannii, ATCC19606, read-out: MIC, Ab ATCC 19606) [µg/mL] | MIC [7, 23] [µg/mL] | MIC [8, 24] [µg/mL] |
| --- | --- | --- | --- | --- | --- | --- | --- | --- | --- | --- | --- | --- | --- | --- | --- | --- | --- | --- | --- | --- |
| COc1ccc2c3conc3c(=O)n(CCN[C@H]3CC[C@H]4[C@@H](C3)OC(=O)N4c3ccc4c(n3)NC(=O)CO4)c2c1 [Compound 11, (3aS,6S,7aR)-6-[(2-{7-methoxy-4-oxo-4H,5H-[1,2]oxazolo[3,4-c]quinolin-5-yl}ethyl)amino]-3-{3-oxo-2H,3H,4H-pyrido[3,2-b][1,4]oxazin-6-yl}-octahydro-1,3-benzoxazol-2-one] | 1 to 10 (≈ 1.83 to 18.3 µM) | < 1 | 1 to 10 (≈ 1.83 to 18.3 µM) | < 1 | 1 | 1 to 10 (≈ 1.83 to 18.3 µM) | < 1 | 1 to 10 (≈ 1.83 to 18.3 µM) | 2 | 1 to 10 (≈ 1.83 to 18.3 µM) | < 1 | 10 to 100 (≈ 18.3 to 183 µM) |  |  |  |  |  |  |  |  |
| O=C1COc2ccc(N3C(=O)O[C@@H]4C[C@@H](NCCn5c(=O)ccc6ccc(Oc7cccnc7)nc65)CC[C@@H]43)nc2N1 [Compound 12, 1-(2-{[(3aS,6S,7aR)-2-oxo-3-{3-oxo-2H,3H,4H-pyrido[3,2-b][1,4]oxazin-6-yl}-octahydro-1,3-benzoxazol-6-yl]amino}ethyl)-7-(pyridin-3-yloxy)-1,2-dihydro-1,8-naphthyridin-2-one] | 1 to 10 (≈ 1.76 to 17.6 µM) | 1 to 10 (≈ 1.76 to 17.6 µM) | 1 to 10 (≈ 1.76 to 17.6 µM) | < 1 | 1 | 1 to 10 (≈ 1.76 to 17.6 µM) | < 1 | 1 to 10 (≈ 1.76 to 17.6 µM) | 1 | < 1 | < 1 | > 100 |  |  |  |  |  |  |  |  |
| COC(=O)c1ccc2ccc(=O)n(CCN[C@@H]3CC[C@@H]4[C@@H](C3)OC(=O)N4c3ccc4c(n3)NC(=O)CO4)c2c1 [Compound 36, methyl 1-(2-{[(3aR,6R,7aR)-2-oxo-3-{3-oxo-2H,3H,4H-pyrido[3,2-b][1,4]oxazin-6-yl}-octahydro-1,3-benzoxazol-6-yl]amino}ethyl)-2-oxo-1,2-dihydroquinoline-7-carboxylate] | 1 to 10 (≈ 1.87 to 18.7 µM) | < 1 | < 1 |  |  | < 1 | < 1 | < 1 |  | < 1 | < 1 | 10 to 100 (≈ 18.7 to 187 µM) |  |  |  |  |  |  |  |  |
| N#Cc1ccc2ccc(=O)n(CCN[C@@H]3CC[C@@H]4[C@@H](C3)OC(=O)N4c3ncc4c(n3)NC(=O)CO4)c2c1 [Compound 37, 1-(2-{[(3aR,6R,7aR)-2-oxo-3-{7-oxo-6H,7H,8H-pyrimido[5,4-b][1,4]oxazin-2-yl}-octahydro-1,3-benzoxazol-6-yl]amino}ethyl)-2-oxo-1,2-dihydroquinoline-7-carbonitrile] | 1 to 10 (≈ 1.99 to 19.9 µM) | 1 to 10 (≈ 1.99 to 19.9 µM) | < 1 |  |  | < 1 | < 1 | 1 to 10 (≈ 1.99 to 19.9 µM) |  | < 1 | < 1 | > 100 |  |  |  |  |  |  |  |  |
| CNCCOc1ccc2ccc(=O)n(CCN[C@@H]3CC[C@@H]4[C@@H](C3)OC(=O)N4c3ccc4c(n3)NC(=O)CO4)c2c1 [Compound 39, (3aR,6R,7aR)—N-(2-{7-[2-(methylazaniumyl)ethoxy]-2-oxo-1,2-dihydroquinolin-1-yl}ethyl)-2-oxo-3-{3-oxo-2H,3H,4H-pyrido[3,2-b][1,4]oxazin-6-yl}-octahydro-1,3-benzoxazol-6-aminium dichloride] |  |  |  |  |  |  |  |  |  |  |  | > 100 | 1 to 10 | 10 to 100 | 10 to 100 | 10 to 100 | 1 to 10 | > 100 | 1 to 10 | 1 to 10 |
| COc1cnc2ccc(=O)n(CCN[C@H]3CC[C@H]4[C@H](C3)OC(=O)N4c3ccc4c(n3)NC(=O)CO4)c2c1 [Compound 42, 7-methoxy-1-{2-[(2-oxo-3-{3-oxo-2H,3H,4H-pyrido[3,2-b][1,4]oxazin-6-yl}-octahydro-1,3-benzoxazol-6-yl)amino]ethyl}-1,2-dihydro-1,5-naphthyridin-2-one] | 1 to 10 (≈ 1.97 to 19.7 µM) | < 1 | < 1 | < 1 | 2 | < 1 | < 1 | 1 to 10 (≈ 1.97 to 19.7 µM) | 1 | < 1 | < 1 | > 100 |  |  |  |  |  |  |  |  |
| NCCOc1ccc2ccc(=O)n(CCN[C@H]3CC[C@H]4[C@H](C3)OC(=O)N4c3ccc4c(n3)NC(=O)CO4)c2c1 [Compound 75, (3aS,6S,7aS)—N-{2-[7-(2-azaniumylethoxy)-2-oxo-1,2-dihydroquinolin-1-yl]ethyl}-2-oxo-3-{3-oxo-2H,3H,4H-pyrido[3,2-b][1,4]oxazin-6-yl}-octahydro-1,3-benzoxazol-6-aminium dichloride] |  |  |  |  |  |  |  |  |  |  |  | > 100 | 1 to 10 | > 100 | 10 to 100 | 1 to 10 | < 1 |  | < 1 | 1 to 10 |
| COc1ccc2ccc(=O)n(CCN(C(=O)CN)[C@H]3CC[C@H]4[C@H](C3)OC(=O)N4c3ccc4c(n3)NC(=O)CO4)c2n1 [Compound 78, {[(3aS,6S,7aS)-2-oxo-3-{3-oxo-2H,3H,4H-pyrido[3,2-b][1,4]oxazin-6-yl}-octahydro-1,3-benzoxazol-6-yl][2-(7-methoxy-2-oxo-1,2-dihydro-1,8-naphthyridin-1-yl)ethyl]carbamoyl}methanaminium chloride] |  |  |  |  |  |  |  |  |  |  |  | > 100 | 1 to 10 | 10 to 100 | 10 to 100 | > 100 | 1 to 10 |  | < 1 | < 1 |
| COc1ccc2ccc(=O)n(CCCN[C@@H]3CC[C@@H]4[C@@H](C3)OC(=O)N4c3ncc4c(n3)NC(=O)CO4)c2n1 [Compound 79, 1-(3-{[(3aR,6R,7aR)-2-oxo-3-{7-oxo-6H,7H,8H-pyrimido[5,4-b][1,4]oxazin-2-yl}-octahydro-1,3-benzoxazol-6-yl]amino}propyl)-7-methoxy-1,2-dihydro-1,8-naphthyridin-2-one] | 1 to 10 (≈ 1.92 to 19.2 µM) | < 1 | < 1 |  |  | 1 to 10 (≈ 1.92 to 19.2 µM) | < 1 | 1 to 10 (≈ 1.92 to 19.2 µM) |  | < 1 | < 1 | 10 to 100 (≈ 19.2 to 192 µM) |  |  |  |  |  |  |  |  |
| Cn1ccc(-c2ccc3ccc(=O)n(CCN[C@H]4CC[C@H]5[C@H](C4)OC(=O)N5c4ccc5c(n4)NC(=O)CO5)c3c2)n1 [Compound 104, 1-(2-{[(3aS,6S,7aS)-2-oxo-3-{3-oxo-2H,3H,4H-pyrido[3,2-b][1,4]oxazin-6-yl}-octahydro-1,3-benzoxazol-6-yl]amino}ethyl)-7-(1-methyl-1H-pyrazol-3-yl)-1,2-dihydroquinolin-2-one] | 10 to 100 (≈ 18 to 180 µM) | < 1 | < 1 |  |  | 1 to 10 (≈ 1.8 to 18 µM) | 1 to 10 (≈ 1.8 to 18 µM) |  |  | < 1 | < 1 | 10 to 100 (≈ 18 to 180 µM) |  |  |  |  |  |  |  |  |
| N#Cc1ccc2c(ccc(=O)n2CCN[C@@H]2CC[C@@H]3[C@@H](C2)OC(=O)N3c2ccc3c(n2)NC(=O)CO3)c1 [Compound 106, 1-(2-{[(3aR,6R,7aR)-2-oxo-3-{3-oxo-2H,3H,4H-pyrido[3,2-b][1,4]oxazin-6-yl}-octahydro-1,3-benzoxazol-6-yl]amino}ethyl)-2-oxo-1,2-dihydroquinoline-6-carbonitrile] |  | 1 to 10 (≈ 2 to 20 µM) |  | < 1 |  | 1 to 10 (≈ 2 to 20 µM) | < 1 |  |  | < 1 | < 1 |  |  |  |  |  |  |  |  |  |
| C[C@H]1COc2c(N3CCN(C)CC3)c(F)cc3c(=O)c(C(=O)O)cn1c23 [LEV, levofloxacin, reference compound] |  |  |  |  | 8 |  |  |  | 8 |  |  |  |  |  |  |  |  |  |  |  |
